In PubChem BioAssay (NCI) one finds TGI and GI50 data, which are given here for 27 compounds.

What all share (assay): DTP human tumour cell line panel, 48 h
In test [1] the test system is SF-268 CNS.
Test [2] deals with NCI-H460 lung.
Test [3] relates to NCI-H522 lung.
In test [4] the test system is NCI-H23 lung.
Test [5] relates to IGROV1 ovarian.
Test [6] has as its system ACHN renal.
The test system of test [7] is 786-0 renal.
The test system of test [8] is LOX IMVI melanoma.
Test [9] has as its system SK-MEL-28 melanoma.

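Step 1: Grow cells in 96-well plates. Step 2: Expose to compound for 48 hours at 5 concentrations. Step 3: Interpolate endpoints linearly; if unreached, use highest concentration. Here, GI50 denotes the concentration required for 50% inhibition of growth. TGI is the concentration that stops growth completely.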

As a reminder, the TGI is the concentration giving total growth inhibition. Low values mean more potent growth arrest, high ones less potent growth arrest. In the case of `C[S+](C)CCOC(=O)C(=[N+]=[N-])c1ccc([N+](=O)[O-])cc1`, the TGI in [1], in test [2], in test [3], in [4], in test [5] and in test [6] was above 100 µM in each case. This compound also gave a concentration for total growth inhibition (TGI) in test [7] above 100 µM.
As for `N#Cc1c(NN)nc(NN)c(C#N)c1-c1ccccc1`, the TGI in test [1], in [2], in [4], in test [5], in test [8] and in [6] was above 100 µM throughout. Also, the TGI in [7] and in [9] was above 100 µM in each case.
In the case of `Cc1cc2nc(CCC(=O)O)c(=O)[nH]c2cc1C`, the TGI in test [1], in test [2], in test [3], in [4], in test [5] and in test [8] was above 100 µM throughout. For the same compound, the TGI in test [6], in test [7] and in [9] was above 100 µM throughout.
Take `CCCCCC/C=C1\CCC(CN2CCCC2)C1=O` (centres undefined): the TGI was 38.5 µM in [1]; above 62.1 µM in [2]; 3.29 µM in test [3]; 33.8 µM in test [4]; 39.6 µM in test [5]; 22.4 µM in test [8]. Further, the TGI in test [6] turned out to be 32.3 µM; in [7] it was 6.43 µM; in test [9] it was 33.8 µM.
In the case of `Oc1ccccc1C=NCc1ccco1`, the TGI in test [1], in test [2], in test [4], in [5], in test [8] and in test [6] was above 100 µM each time. In addition, the TGI in test [7] and in test [9] was above 100 µM throughout.
As for `Clc1ccc2c(c1)C1C(CO2)C(c2ccccc2)=NN1c1ccccc1` (centres undefined), the TGI was above 100 µM in test [1]; above 100 µM in test [2]; 99.8 µM in [4]; above 100 µM in test [5]; above 100 µM in test [6]; above 100 µM in [7]. The TGI in test [9] was above 100 µM.
Regarding `O=C(CC1(O)C(=O)Nc2c(Cl)ccc(Cl)c21)c1ccc2ccccc2c1` (centres undefined), the total growth inhibition concentration (TGI) was determined as 36.2 µM in test [1]; 25.5 µM in test [2]; 9.24 µM in [3]; 27 µM in [4]; 41.4 µM in test [5]; 31.9 µM in [8]. Further, the TGI in test [6] stood at 26.3 µM; in [7], 22.4 µM; in test [9], 32.6 µM.
With `CC(=O)OC1COC(Nc2ccc(C(C)=O)cc2)C(OC(C)=O)C1OC(C)=O` (centres undefined), the TGI in [1], in test [2], in test [3], in test [4], in test [5] and in test [8] was above 100 µM in each case. Also, the TGI in [6], in test [7] and in test [9] was above 100 µM in each case.
With `CCC/C(=N/NC(=O)C(N)=O)C(CC)C(=O)CCC(=O)N(Cc1ccccc1)Cc1ccccc1` (centres undefined), the TGI in test [1], in test [2], in [3], in test [4], in test [5] and in test [8] was above 100 µM throughout. The TGI in test [6], in test [7] and in test [9] was above 100 µM in each case.
By GI50 is commonly meant the concentration giving 50% growth inhibition. With `CC(=O)[CH-]C(=O)c1ccccc1.CC(=O)[CH-]C(=O)c1ccccc1.[Eu+3].[OH-].[OH3+]`, the GI50 in test [2], in [4], in test [5], in test [8], in test [6] and in test [7] was above 100 µM each time. In addition, the GI50 in test [9] is above 100 µM. The total growth inhibition concentration (TGI) in test [2], in test [4], in test [5], in test [8], in test [6] and in test [7] was above 100 µM in each case. Moreover, in test [9], the TGI was above 100 µM.
Turning to `CC(=O)[CH-]C(=O)c1ccccc1.CC(=O)[CH-]C(=O)c1ccccc1.CC1(C)C2CCC1(C)C([O-])C2.CC1(C)C2CCC1(C)C([O-])C2.[Ti+4]`, the GI50 in [1] was 34.8 µM; in [2], 47.7 µM; in test [5], 25.3 µM; in [8], 25.1 µM; in [6], 54.4 µM; in test [7], 25.9 µM. In addition, the GI50 in [9] was 34.1 µM. The TGI in test [1] is above 100 µM; in test [2], above 100 µM; in test [5], 85.8 µM; in test [8] it was above 100 µM; in test [6] it was above 100 µM; in test [7] it was above 100 µM. In addition, the TGI in test [9] was above 100 µM.
Regarding `CCC1(c2c(F)c(F)c(N)c(F)c2F)CCC(=O)NC1=O` (centres undefined), the TGI in test [1], in [2], in test [3], in test [4], in test [5] and in test [8] was above 100 µM throughout. The TGI in test [6], in [7] and in [9] was above 100 µM throughout.
For `O=C1NC(=O)C2C(=O)NC(=O)C1C2(c1ccccc1)c1cc[nH]c1` (centres undefined), the TGI in test [1], in [2], in test [3], in test [4], in [5] and in [8] was above 100 µM each time. For the same compound, the TGI in test [6], in [7] and in test [9] was above 100 µM in each case.
As for `Oc1cc(O)c2c(-c3c(O)c(-c4ccc(O)c(O)c4)[o+]c4cc(O)cc(O)c34)c(O)c(-c3ccc(O)c(O)c3)[o+]c2c1`, the TGI in test [1] is above 100 µM; in [2], 90.6 µM; in test [4], above 100 µM; in test [5], above 100 µM; in [8], above 100 µM; in test [6], 66.6 µM. The concentration for total growth inhibition (TGI) in test [7] and in test [9] was above 100 µM throughout.
Regarding `O=C(CO)CC(=O)C(=O)Nc1ccccc1`, the TGI in [1], in test [2], in [4], in test [5], in test [8] and in test [6] was above 100 µM each time. In addition, the total growth inhibition concentration (TGI) in test [7] and in test [9] was above 100 µM each time.
Regarding `COC(=O)C(=O)OC1(C(C)=O)CC2(c3ccccc3)OC1(c1ccccc1)c1ccccc12` (centres undefined), the TGI was found to be 44 µM in test [1]; 36.2 µM in [2]; 34.7 µM in [3]; 33.3 µM in test [4]; 41.4 µM in test [5]; 30.4 µM in [8]. The same compound gave a TGI in test [7] of 26.9 µM.
As to `N#CC(C(=O)/C(=N/N)C(C#N)c1ccccc1)c1ccccc1` (centres undefined), the concentration for total growth inhibition (TGI) in test [1], in test [2], in [3], in test [4], in test [5] and in test [8] was above 100 µM throughout. Moreover, the TGI in test [6], in [7] and in test [9] was above 100 µM in each case.
Take `Clc1cc(Cc2cc(Cl)c(Cl)c3c2OCOC3)c2c(c1Cl)COCO2`: the TGI in [1], in test [2], in [3], in test [4], in test [5] and in test [8] was above 100 µM in each case. The TGI in test [6] was above 100 µM; in test [7], 62.4 µM; in test [9], above 100 µM.
In the case of `CN(C)c1ccc([O][Bi]([Cl])[Cl])cc1`, the GI50 in [2], in test [4], in test [5], in test [8], in test [7] and in [9] was above 100 µM in each case. Besides, the TGI in [2], in [4], in test [5], in [8], in test [7] and in test [9] was above 100 µM in each case.
As to `COc1cc2c3c(n(CCCN)c(=O)c2cc1OC)-c1cc2c(cc1/C3=C\CCN)OCO2`, the GI50 in [1] was 0.993 µM; in [2], 1.06 µM; in [3] it was 0.2 µM; in [4], 5.35 µM; in test [5] it was 3.74 µM; in [8], 1.7 µM. Besides, the GI50 is 5.81 µM in [6], 2.05 µM in [7] and 2.15 µM in [9]. For the same compound, the total growth inhibition concentration (TGI) in test [1] was 6.89 µM; in test [2] it was 7.53 µM; in test [3], 3.08 µM; in [4] it was 24.1 µM; in [5], above 26.8 µM; in test [6], 45 µM. The TGI in [7] is 9.34 µM; in test [9] it was 9.67 µM.
On to `CCOc1ccccc1NC(=O)CC1SC(=Nc2ccc([N+](=O)[O-])cc2)NC1=O` (centres undefined), for which the TGI was above 100 µM in [1]; 51.1 µM in test [2]; 35.2 µM in [4]; 61.4 µM in test [5]; 47.1 µM in [8]; 46 µM in test [6]. Moreover, the TGI is 33.5 µM in [7] and 70 µM in [9].
Regarding `CC1(CO)OC(n2cc(C(=O)NC(=O)OCc3ccccc3)c(=O)[nH]c2=O)CC1O` (centres undefined), the TGI in test [1], in test [2], in test [3], in test [4], in [5] and in test [8] was above 100 µM each time. Also, the TGI in test [6], in test [7] and in [9] was above 100 µM in each case.
Regarding `Cc1ccc(/C=C2/SC(Nc3nc(-c4csc(NC5=NC(=O)/C(=C\c6ccc(C)cc6)S5)n4)cs3)=NC2=O)cc1`, the GI50 in test [1] is 8.98 µM; in test [2] it was 4.36 µM; in test [3], 21.6 µM; in test [4] it was 12 µM; in test [5], 24 µM; in [7], 7.68 µM. Further, in test [9], the GI50 is 25 µM. The concentration for total growth inhibition (TGI) was above 50 µM in test [1]; above 50 µM in test [2]; above 50 µM in [3]; above 50 µM in test [4]; above 50 µM in test [5]; 25.6 µM in test [7]. This compound also came in with a total growth inhibition concentration (TGI) in test [9] above 50 µM.
Take `COc1cccc(NC(=O)/C(CC(=O)CC(c2ccccc2)c2c(O)c3ccccc3oc2=O)=N\NC(C)(C)C)c1OC` (centres undefined): the total growth inhibition concentration (TGI) in test [1], in [2], in test [5], in test [8], in test [6] and in [7] was above 100 µM in each case. The same compound came in with a TGI in [9] above 100 µM.
`COC(=O)/C([Se]c1c(C)cc(C)cc1C)=C(\[Se]c1c(C)cc(C)cc1C)C(=O)OC`: the total growth inhibition concentration (TGI) in test [1], in test [2], in test [3], in test [4], in test [5] and in test [8] was above 100 µM each time. In addition, the TGI in [6] and in test [7] was above 100 µM each time.
In the case of `CCc1c(C#N)c(S[C@@H](C(N)=O)c2ccccc2)nc(N(C)C)c1C#N`, the GI50 is 5.07 µM in test [1]; above 100 µM in [2]; 21.1 µM in [4]; 7.14 µM in test [5]; above 100 µM in test [8]; 3.9 µM in [6]. Also, the GI50 in test [7] is 21.1 µM. Moreover, the TGI in test [1], in test [2], in test [4], in [5], in test [8] and in [6] was above 100 µM each time. In test [7], this compound returned a TGI above 100 µM.
On to `O=c1cc2ccccc2nn1Cc1cccc(Cl)c1`, for which the concentration for total growth inhibition (TGI) in [1], in test [2], in test [4], in [5], in [8] and in test [6] was above 100 µM throughout. Besides, the TGI in test [7] and in test [9] was above 100 µM throughout.
